Structures are written as SMILES.

The data set can be described thus: Waters ACQUITY UPLC BEH C18, 100 × 2.1 mm, 1.7 µm, 40 °C, 0.3 to 0.4 mL/min, estimated dead time 0.63 min; A: water + 0.1% formic acid; B: methanol + 0.1% formic acid; gradient (min/%B) 0/0.5 0.1/0.5 10/80 10.1/99.5 12/99.5. To be noted: stereoisomer not certain.
`CC(=O)Oc1ccc(C=Cc2cc(OC(C)=O)cc(OC(C)=O)c2)cc1`: the LC retention time is 8.46 min.

Turning to `CC1(C)CCC2(C(=O)OC3OC(CO)C(O)C(O)C3O)CCC3(C)C(=CCC4C5(C)CCC(OC6OC(C(=O)O)C(OC7OC(CO)C(O)C7O)C(O)C6O)C(C)(C)C5CCC43C)C2C1` (stereo unspecified), the LC retention time was 6.39 min.

As to `COc1cc(C2Oc3c(O)cc(C4Oc5cc(O)cc(O)c5C(=O)C4O)cc3C2CO)ccc1O` (stereo unspecified), the LC retention time is 4.96 min.

For the compound `O=C(O)CCCCCCCC(=O)O`, the LC retention time is 4.78 min.

For the compound `NC(CCC(=O)NCC(=O)O)C(=O)O` (stereo unspecified), the LC retention time is 1.67 min.

Take `COc1cc2ccc(=O)oc2cc1O`: the LC retention time is 4.24 min.

Turning to `C=CC1CN2CCC1CC2C(O)c1ccnc2ccccc12` (stereo unspecified), the LC retention time is 3.09 min.

With `O=C(C=Cc1ccc(O)c(O)c1)OC1CC(O)(C(=O)O)CC(O)C1O` (stereo unspecified), the LC retention time is 3.13 min.

Take `CC1(C)C=CC2(C)CCC3(C)C(=CCC4C5(C)CCC(O)C(C)(CO)C5CCC43C)C2C1` (stereo unspecified): the LC retention time is 10.4 min.

As for `O=C(O)CC(=O)OCC1OC(Oc2c(-c3ccc(O)c(O)c3)oc3cc(O)cc(O)c3c2=O)C(O)C(O)C1O` (stereo unspecified), the LC retention time is 4.22 min.

In the case of `CC1CCC2C(C)C3C(CC4C5CC=C6CC(O)CCC6(C)C5CC(O)C43CO)N2C1` (stereo unspecified), the LC retention time is 3.7 min.

For the compound `COc1ccc(Cc2nccc3cc(OC)c(OC)cc23)cc1OC`, the LC retention time was 4.49 min.

For the compound `CC(C)CC(N)C(=O)NC(Cc1ccccc1)C(=O)O` (stereo unspecified), the LC retention time is 3.64 min.

Take `O=c1c(OC2OC(CO)C(O)C(O)C2O)c(-c2cc(O)c(O)c(O)c2)oc2cc(O)cc(O)c12` (stereo unspecified): the LC retention time is 3.64 min.

`CC1OC(OC2CCC3(C)C(CCC4(C)C3C=CC3=C5CC(C)(C)CCC5(CO)C(O)CC34C)C2(C)CO)C(O)C(OC2OC(CO)C(O)C(O)C2O)C1O` (stereo unspecified): the LC retention time was 7.11 min.

For `CCCC1CCCCN1` (stereo unspecified), the LC retention time was 2.78 min.

Turning to `CC(=O)OCC1OC(Oc2c(-c3ccc(O)c(O)c3)oc3cc(O)cc(O)c3c2=O)C(O)C(O)C1O` (stereo unspecified), the LC retention time is 4.42 min.

As for `CC1C(=O)OC2C(O)C34C5OC(=O)C3(OC3OC(=O)C(O)C34C(C(C)(C)C)C5O)C12O` (stereo unspecified), the LC retention time was 4.33 min.

In the case of `C=CC1C(OC2OC(CO)C(O)C(O)C2O)OC=C2C(=O)N3Cc4cc5ccccc5nc4C3CC21` (stereo unspecified), the LC retention time is 5.27 min.

Turning to `C=CC1c2cc3n(c(=O)c2C2OC1OC1OC(CO)C(O)C(O)C1O2)CCc1c-3[nH]c2ccccc12` (stereo unspecified), the LC retention time is 5.46 min.

Take `CC=C1CC(C)C(O)(CO)C(=O)OCC2=CCN3CCC(OC1=O)C23` (stereo unspecified): the LC retention time is 3.23 min.

In the case of `NCCCCNC(=O)C=Cc1ccccc1`, the LC retention time was 3.7 min.

Regarding `O=c1c(-c2ccc(O)cc2)coc2cc(O)ccc12`, the LC retention time is 5.15 min.

For the compound `O=C(O)CCC(NC(=O)Cc1c[nH]c2ccccc12)C(=O)O` (stereo unspecified), the LC retention time was 4.12 min.

In the case of `CC(C)CC(N)C(=O)N1CCCC1C(=O)O` (stereo unspecified), the LC retention time is 2.72 min.

Consider `COC1=CC2C3Cc4ccc(OC)c(O)c4C2(CCN3C)CC1=O` (stereo unspecified), for which the LC retention time was 3.03 min.

Consider `COc1ccc(-c2oc3cc(O)cc(O)c3c(=O)c2O)cc1`, for which the LC retention time was 5.99 min.

Turning to `Oc1ccc(C=Cc2cc(O)cc3c2C(c2cc(O)cc(O)c2)C(c2ccc(O)cc2)O3)cc1` (stereo unspecified), the LC retention time is 5.81 min.

For the compound `CN1Cc2c(ccc3c2OCO3)C2C(O)Cc3cc4c(cc3C21)OCO4` (stereo unspecified), the LC retention time was 4.53 min.

Regarding `NC(CCC(=O)NC(CS)C(=O)NCC(=O)O)C(=O)O` (stereo unspecified), the LC retention time is 1.52 min.

`CC1CCC2C(C)C3C(CC4C5C(=O)C=C6CC(OC7OC(CO)C(OC8OC(C)C(O)C(O)C8O)C(O)C7OC7OC(C)C(O)C(O)C7O)CCC6(C)C5CCC43C)N2C1` (stereo unspecified): the LC retention time is 4.52 min.

On to `O=C(O)C(Cc1ccccc1)NC(=O)C1CCCN1` (stereo unspecified), for which the LC retention time was 2.99 min.

`COc1cc(CC(=O)O)ccc1O`: the LC retention time is 3.84 min.

Take `O=c1c(OC2OC(CO)C(O)C(O)C2O)c(-c2ccc(O)cc2)oc2cc(O)cc(O)c12` (stereo unspecified): the LC retention time is 4.37 min.

As for `COc1cc(O)c2c(c1)OC(c1ccc(O)c(-c3c(O)cc(O)c4c(=O)cc(-c5ccc(O)cc5)oc34)c1)CC2=O` (stereo unspecified), the LC retention time is 5.58 min.

Take `C=CC12CN(C)C3C4COC(CC41)C1(C(=O)N(OC)c4ccccc41)C32` (stereo unspecified): the LC retention time is 4.05 min.

Take `COc1cc2c3cc1Oc1c(OC)c(OC)cc4c1C(Cc1ccc(cc1)Oc1cc(ccc1O)CC3N(C)CC2)N(C)CC4` (stereo unspecified): the LC retention time was 3.76 min.

With `CC1(C)CC2C3=CCC4C5(C)CCC(O)C(C)(CO)C5CCC4(C)C3(C)CCC2(C)C(O)C1O` (stereo unspecified), the LC retention time is 8.94 min.

Take `O=c1c(OC2OCC(O)C(O)C2O)c(-c2cc(O)c(O)c(O)c2)oc2cc(O)cc(O)c12` (stereo unspecified): the LC retention time was 3.9 min.

For `C=C(C)C1CNC(C(=O)O)C1CC(=O)O` (stereo unspecified), the LC retention time was 2.44 min.

Take `CCCCCCCCC=CCCCCCCCC(=O)OCC(O)COP(=O)([O-])OCC[NH3+]` (stereo unspecified): the LC retention time is 10.2 min.

As to `COc1cc2ccc(=O)oc2cc1OC`, the LC retention time was 5 min.

As to `CC=CS(=O)CC(NC(=O)CCC(NCC1(O)OCC(O)C(O)C1O)C(=O)O)C(=O)O` (stereo unspecified), the LC retention time was 1.83 min.

As to `CC1=C(O)C(=O)CC(OC2CC(C)(C)CC3C4=CCC5C6(C)CCC(OC7OC(C(=O)O)C(O)C(O)C7OC7OC(C(=O)O)C(O)C(O)C7OC7OC(C)C(O)C(O)C7O)C(C)(CO)C6CCC5(C)C4(C)CCC23C)O1` (stereo unspecified), the LC retention time was 7.66 min.

Regarding `O=C(C=Cc1ccc(O)c(O)c1)OC1CC(OC(=O)C=Cc2ccc(O)c(O)c2)(C(=O)O)CC(O)C1O` (stereo unspecified), the LC retention time was 3.49 min.

With `COc1ccc(C=Cc2cc(OC)cc(OC)c2)cc1`, the LC retention time is 9.6 min.

On to `CC(C)CC(NC(=O)CCC(N)C(=O)O)C(=O)O` (stereo unspecified), for which the LC retention time was 2.54 min.

For the compound `CC(C)C(O)(C(=O)OCC1CC[N+]2([O-])CCCC12)C(C)O` (stereo unspecified), the LC retention time was 3.11 min.

`COC(=O)C1=COC(C)C2CN3CCC4(C(=O)Nc5c4ccc(OC)c5OC)C3CC12` (stereo unspecified): the LC retention time is 4.48 min.

On to `COc1c(C=CC(=O)c2ccc(O)c(O)c2)ccc(O)c1CC=C(C)C`, for which the LC retention time is 7.49 min.

As for `O=C(C=Cc1ccccc1)c1ccccc1`, the LC retention time is 9.02 min.

For the compound `O=C(C=Cc1ccc(O)cc1)Oc1cc(O)c2c(=O)c(OC3OC(CO)C(O)C(O)C3O)c(-c3ccc(O)cc3)oc2c1` (stereo unspecified), the LC retention time is 2.35 min.

For `COc1ccc2cc1Oc1ccc(cc1)CC1=NCCc3cc(OC)c(cc31)Oc1c(OC)c(OC)c([O-])c3c1C(C2)[NH+](C)CC3` (stereo unspecified), the LC retention time was 3.96 min.

Consider `NC(CCCCNC(=O)C=Cc1ccc(O)c(O)c1)C(=O)O` (stereo unspecified), for which the LC retention time was 2.61 min.

As to `COCC12CCC(OC)C34C5CC6(O)C(OC)C(O)C(OC(C)=O)(C5C6OC(=O)c5ccccc5)C(C(OC)C13)C4N(C)C2` (stereo unspecified), the LC retention time was 5.97 min.

Consider `CC1OC(OC2C(OC3CCC4(C)C(CCC5(C)C4CC=C4C6CC(C)(C)CCC6(C(=O)O)CCC45C)C3(C)CO)OCC(O)C2O)C(O)C(O)C1O` (stereo unspecified), for which the LC retention time was 7.96 min.
